One test has as its target T1, CDK9/CyclinT1 (Homo sapiens, UniProt P50750).
T1 construct: purchased Carna
Briefly: In vitro CDK9/CyclinT1 enzyme activity test (ADP-Glo). The class given is biochemical. The settings on record: 100 μM ATP, 25° C., 120 minutes. The method, then: CDK9/CyclinT1 kinase was purchased from Carna, ADP-Glo detection kit was purchased from Promega, and PKDTide substrate and kinase reaction buffer were purchased from Signalchem. Nivo multi-label analyzer (PerkinElmer).
The kinase buffer in the kit was used to dilute the enzyme, substrate, adenosine triphosphate and inhibitors.
The compound to be tested was diluted by 5 times for 8 concentrations with a discharge gun, ie., dilution from 50 μM to 0.65 nM, with a DMSO concentration of 5%, and replicated. 1 μL of each concentration gradient of the inhibitor, 2 μL CDK9/CyclinT1 enzyme (4 ng), 2 μL of a mixture of substrate and ATP (100 μM adenosine triphosphate, 0.2 μg/μL substrate) was added to the microplate, and the final concentration gradient of the compound was 10 μM dilution to 0.13 nM. The reaction system was placed at 25° C. for 120 minutes. After the reaction, 5 μL of ADP-Glo reagent was added to each well, and the reaction was allowed to continue at 25° C. for 40 minutes. After the reaction, 10 μL of kinase detection reagent was added to each well. After reacting at 25° C. for 30 minutes, a multi-label analyzer was used to read chemiluminescence. The integration time was 0.5 seconds.
Table 1 provides the enzymatic inhibitory activity of the compounds of the present invention on CDK9/CyclinT1.
For orientation: ADP-Glo first removes unused ATP, then detects ADP through luciferase.

The target of the next test is T2, CDK1/CyclinB1 (Homo sapiens, UniProt P06493).
T2 construct: purchased Promega
Nature of the test: In vitro CDK1/CyclinB1 enzyme activity test (ADP-Glo). The class given is biochemical. Particulars: 25 μM ATP, 25° C., 120 minutes. The method, then: CDK1/CyclinB1 kinase detection kit was purchased from Promega. Nivo multi-label analyzer (PerkinElmer).
(§1) Using the kinase buffer in the kit to dilute the enzyme, substrate, adenosine triphosphate and inhibitor.
The compound to be tested was diluted 5-fold to the 8th concentration with a discharge gun, that is, diluted from 50 μM to 0.65 nM, with a DMSO concentration of 5%, and replicated. Add 1 μL of each inhibitor concentration gradient, 2 μL CDK1/CyclinB1 enzyme (12.5 ng), 2 μL mixture of substrate and ATP (25 μM adenosine triphosphate, 0.2 μg/μL substrate) into the microplate, and the final concentration gradient of the compound is 10 μM dilute to 0.13 nM. The reaction system was placed at 25° C. for 120 minutes. After the reaction, add 5 μL of ADP-Glo reagent to each well, and continue the reaction at 25° C. for 40 minutes. After the reaction, add 10 μL of kinase detection reagent to each well. After reacting at 25° C. for 30 minutes, use a multi-label analyzer to read chemiluminescence. The integration time is 0.5 seconds.
Table 1 provides the CDK1/CyclinB1 enzymatic inhibitory activity of the compounds of the present invention.

A further test concerns the target T3, CDK2/CyclinE1 (Homo sapiens, UniProt P24941).
T3 construct: purchased Promega
Nature of the test: In vitro CDK2/CyclinE1 enzyme activity test (ADP-Glo). Particulars: 150 μM ATP, 25° C., 60 minutes. The format is biochemical. As for the experimental part:
CDK2/CyclinE1 kinase detection kit was purchased from Promega. Nivo multi-label analyzer (PerkinElmer).
as §1
The compound to be tested was diluted 5-fold to the 8th concentration with a discharge gun, that is, diluted from 50 μM to 0.65 nM, with a DMSO concentration of 5%, and replicated. Add 1 μL of each inhibitor concentration gradient, 2 μL CDK2/CyclinE1 enzyme (2 ng), 2 μL mixture of substrate and ATP (150 μM adenosine triphosphate, 0.1 μg/μL substrate) to the microplate, and the final concentration gradient of the compound is 10 μM dilution to 0.13 nM. The reaction system was placed at 25° C. for 60 minutes. After the reaction, add 5 μL of ADP-Glo reagent to each well, and continue the reaction at 25° C. for 40 minutes. After the reaction, add 10 μL of kinase detection reagent to each well. After reacting at 25° C. for 30 minutes, use a multi-label analyzer to read chemiluminescence. The integration time is 0.5 seconds.
Table 1 provides the CDK2/CyclinE1 enzymatic inhibitory activity of the compounds of the present invention.

The next test has as its system MV-4-11 cells. Nature of the test: In vitro cell activity test, MV-4-11 proliferation (CellTiter-Glo). The format is cell-based. Particulars: Homo sapiens, MV4-11, 72 h, 3 days incubation. The method, then:
IMDM medium, fetal bovine serum, penicillin/streptomycin antibiotics were purchased from Promega (Madison, Wis.). The MV-4-11 cell line was purchased from the Cell Bank of the Chinese Academy of Sciences. Nivo multi-label analyzer (PerkinElmer).
Plant MV-4-11 cells in a white 96-well plate, 80 μL of cell suspension per well, which contains 6000 MV-4-11 cells. The cell plate was cultured overnight in a carbon dioxide incubator.
The compound to be tested was diluted 5-fold to the 8th concentration with a discharge gun, that is, diluted from 2 mM to 26 nM, and replicated. Add 78 μL of culture medium to the middle plate, and then transfer 2 μL of each well of the gradient dilution compound to the middle plate according to the corresponding position, and transfer 20 μL of each well to the cell plate after mixing. The final concentration of the compound is 10 μM to 0.13 nM. The cell plate was placed in a carbon dioxide incubator for 3 days.
Add 25 μL of Promega CellTiter-Glo reagent per well to the cell plate and incubate at room temperature for 10 minutes to stabilize the luminescence signal. Use PerkinElmer Nivo multi-label analyzer to read.
On the technique in general: ATP-based viability assays read luminescence as a measure of living cells.

What is called pIC50 is the IC50 on a negative log10 scale, so that one unit is a factor of ten. A low value points to a large IC50.

pIC50: −log10 of the molar value. Counter-ions that a name gives are not always drawn.

T2 sequence (P06493 whole entry): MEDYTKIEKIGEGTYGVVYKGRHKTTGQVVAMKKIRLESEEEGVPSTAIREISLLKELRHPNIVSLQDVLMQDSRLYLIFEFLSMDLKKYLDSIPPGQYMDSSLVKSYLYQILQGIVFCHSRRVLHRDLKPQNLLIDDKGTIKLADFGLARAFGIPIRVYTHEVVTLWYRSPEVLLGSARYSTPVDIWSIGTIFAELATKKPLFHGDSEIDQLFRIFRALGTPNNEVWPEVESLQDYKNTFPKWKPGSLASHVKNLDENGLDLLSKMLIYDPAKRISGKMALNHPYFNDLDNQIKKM
T2 sequence (P14635 whole entry partner): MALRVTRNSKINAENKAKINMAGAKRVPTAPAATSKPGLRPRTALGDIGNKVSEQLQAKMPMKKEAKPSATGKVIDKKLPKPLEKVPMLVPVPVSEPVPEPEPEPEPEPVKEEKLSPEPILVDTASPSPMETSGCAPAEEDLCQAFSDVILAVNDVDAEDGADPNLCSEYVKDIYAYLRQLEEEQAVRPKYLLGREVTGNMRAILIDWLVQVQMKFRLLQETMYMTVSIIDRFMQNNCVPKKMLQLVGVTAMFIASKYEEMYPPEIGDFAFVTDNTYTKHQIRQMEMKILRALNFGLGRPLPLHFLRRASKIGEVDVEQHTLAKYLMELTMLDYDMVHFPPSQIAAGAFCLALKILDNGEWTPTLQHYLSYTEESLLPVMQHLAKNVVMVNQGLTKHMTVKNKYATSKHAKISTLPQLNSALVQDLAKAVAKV
T1 sequence (P50750 whole entry): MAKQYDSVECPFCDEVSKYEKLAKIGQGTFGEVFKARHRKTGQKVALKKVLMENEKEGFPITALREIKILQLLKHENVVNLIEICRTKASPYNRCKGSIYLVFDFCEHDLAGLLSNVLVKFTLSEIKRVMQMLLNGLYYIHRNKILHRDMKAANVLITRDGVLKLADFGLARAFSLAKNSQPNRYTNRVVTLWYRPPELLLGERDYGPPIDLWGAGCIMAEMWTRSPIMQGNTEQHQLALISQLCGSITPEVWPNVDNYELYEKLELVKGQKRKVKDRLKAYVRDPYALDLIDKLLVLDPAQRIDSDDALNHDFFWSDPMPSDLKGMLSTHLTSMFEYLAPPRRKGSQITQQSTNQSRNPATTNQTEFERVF
T1 sequence (O60563 whole entry partner): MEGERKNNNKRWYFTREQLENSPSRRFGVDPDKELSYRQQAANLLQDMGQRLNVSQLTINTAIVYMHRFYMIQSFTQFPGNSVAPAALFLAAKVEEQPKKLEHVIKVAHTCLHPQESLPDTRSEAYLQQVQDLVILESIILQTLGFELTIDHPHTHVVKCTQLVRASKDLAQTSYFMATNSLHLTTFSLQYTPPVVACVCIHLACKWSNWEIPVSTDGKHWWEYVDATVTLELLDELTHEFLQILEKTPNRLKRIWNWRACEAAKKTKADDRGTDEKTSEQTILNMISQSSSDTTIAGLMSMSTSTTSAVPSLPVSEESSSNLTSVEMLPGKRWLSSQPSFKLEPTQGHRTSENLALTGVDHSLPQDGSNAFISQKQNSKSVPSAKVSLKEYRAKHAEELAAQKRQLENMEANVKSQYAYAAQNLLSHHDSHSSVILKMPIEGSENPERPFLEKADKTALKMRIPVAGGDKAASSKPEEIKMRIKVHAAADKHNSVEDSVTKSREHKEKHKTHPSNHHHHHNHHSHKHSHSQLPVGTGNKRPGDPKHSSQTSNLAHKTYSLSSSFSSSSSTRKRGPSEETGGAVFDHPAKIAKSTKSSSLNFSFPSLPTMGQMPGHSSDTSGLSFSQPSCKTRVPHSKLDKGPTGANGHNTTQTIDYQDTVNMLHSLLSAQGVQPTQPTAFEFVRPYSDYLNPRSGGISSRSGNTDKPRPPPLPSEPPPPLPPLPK

Regarding `Clc1cnc2[nH]c(C3CCNCC3)cc2c1-c1cnn(CC2CCCC2)c1` [Compound 8 (formate)], the pIC50 is 8.15 at CDK9/CyclinT1, 6.75 at CDK1/CyclinB1, 7.12 against CDK2/CyclinE1 and 7.26 in the test on MV-4-11 cells.
The matching figures for `Clc1cnc2[nH]c(C3CCNCC3)c(Cl)c2c1-c1cnn(CC2CC2)c1` [Compound 7]: 8.28, 6.44, 6.95 and 7.06.
The matching figures for `Clc1cccc(Cn2cc(-c3c(Cl)cnc4[nH]c(C5CCNCC5)cc34)cn2)c1` [Compound 11 (formate)]: 8.19, 6.92, 6.67 and 7.19.
Consider `Clc1cnc2[nH]c(C3CCNCC3)nc2c1-c1cnn(CC2CC2)c1` [Compound 14], for which the results for the pIC50 on CDK9/CyclinT1, against CDK2/CyclinE1 and in the test on MV-4-11 cells were 7.42, 5.87 and 6.33, respectively.
Turning to `CC(C)N1CCC(c2cc3c(-c4cnn(CC5CC5)c4)c(Cl)cnc3[nH]2)CC1` [4 (hydrochloride)], the pIC50 against CDK9/CyclinT1 was 7.99; against CDK1/CyclinB1, 6.12; against CDK2/CyclinE1 it was 6.48; with MV-4-11 cells, 7.02.
The like results for `Clc1ccccc1Cn1cc(-c2c(Cl)cnc3[nH]c(C4CCNCC4)cc23)cn1` [Compound 10 (formate)] were, in that order, 8.16, 7.06, 6.26 and 7.10.
The like results for `CN1CCC(c2cc3c(-c4cnn(CC5CC5)c4)c(Cl)cnc3[nH]2)CC1` [Compound 2 (formate)] were, in that order, 8.15, 6.59, 7.10 and 7.45.
The matching figures for `Clc1ccc(Cn2cc(-c3c(Cl)cnc4[nH]c(C5CCNCC5)cc34)cn2)cc1` [Compound 12]: 8.11, 6.58, 6.26 and 6.54.
For the molecule `COCCN1CCC(c2cc3c(-c4cnn(CC5CC5)c4)c(Cl)cnc3[nH]2)CC1` [5 (hydrochloride)], the pIC50 on CDK9/CyclinT1 is 7.97; at CDK1/CyclinB1, 5.81; on CDK2/CyclinE1, 6.63; in the test on MV-4-11 cells, 7.20.
The matching figures for `COCC(C)N1CCC(c2cc3c(-c4cnn(CC5CC5)c4)c(Cl)cnc3[nH]2)CC1` (stereo not drawn) [Compound 6 (formate)]: 8.02, 5.99, 6.40 and 7.28.
The matching figures for `c1cc(-c2cnn(CC3CC3)c2)c2cc(C3CCNCC3)[nH]c2n1` [Compound 3 (formate)]: 7.74, 6.06, 6.03 and 6.60.
With `Clc1cnc2[nH]c(C3CCNCC3)cc2c1-c1cnn(Cc2ccccc2)c1` [Compound 9 (formate)], the pIC50 was 8.20 against CDK9/CyclinT1, 6.88 against CDK1/CyclinB1, 6.98 at CDK2/CyclinE1 and 7.17 in the test on MV-4-11 cells.
Turning to `CCN1CCC(c2cc3c(-c4cnn(CC5CC5)c4)c(Cl)cnc3[nH]2)CC1` [Compound 3 (hydrochloride)], the pIC50 is 7.85 at CDK9/CyclinT1, 6.38 at CDK1/CyclinB1, 6.98 against CDK2/CyclinE1 and 8.13 with MV-4-11 cells.

Source of the values: US20220267321A1, “AZAINDOLE PYRAZOLE COMPOUNDS AS CDK9 INHIBITORS” (MEDSHINE DISCOVERY INC., priority 2019, published 2022).
